Assay results taken from patent US8187508B2, “Base agent for electrical insulating oil” (Lion Corporation, priority 2005, dated 2012).

Key:
[1] = Dielectric breakdown voltage (JIS C2101); type: physicochemical
Source text: (§1) It will be noted that in the following Examples and Comparative Examples, an acid value, moisture content, kinetic viscosity, flash point, oxidation stability, dielectric breakdown voltage, specific permittivity, and a content of fatty acid triglyceride are, respectively, values measured according to the following methods. • (1) Acid value: determined by a method pursuant to a potentiometric method of JIS K1557. • (2) Moisture content: determined by a method pursuant to the Carl Fisher method of JIS K0068. • (3) Kinetic viscosity: determined by a method pursuant to the Canon Fenske viscometer of JIS K2283. • (4) Flash point: determined by a method pursuant to the Cleaveland open-cup method of JIS K2265. • (5) Oxidation stability: determined by a method pursuant to the electrical insulating oil testing method of JIS C2101. • (6) Dielectric breakdown voltage: determined by a method pursuant to the electric insulating oil testing method of JIS C2101. • (7) Specific permittivity: determined by a method pursuant to the electric insulating oil testing method of JIS C2101. • (8) Content of fatty acid triglyceride: about 40 mg of a sample was placed in a 3-ml vial container, to which 0.5 ml of pyridine, 0.4 ml of hexamethyldisilazane and 0.2 ml of trimethylchlorosilane were added, followed by trimethylsilylation at 80° C. for 30 minutes and subjecting the resulting supernatant liquid to gas chromatographic analysis.

[2] = Specific permittivity (JIS C2101); type: physicochemical
Source text: as §1

[3] = Flash point (Cleaveland open-cup method, JIS K2265); type: physicochemical
Source text: as §1

[4] = Oxidation stability test (JIS C2101); type: physicochemical; conditions: for Oxidation stability test, 120° C. after 75 hours: acid value after 120° C.; for Oxidation stability test, Initial value: acid value before the test
Method: In order to ensure good stability to oxygen and heat, the base agent for electrical insulating oils of the invention should preferably have a total acid value of not higher than 0.5 mg of KOH/g, more preferably not higher than 0.3 mg of KOH/g, after deterioration in an oxidation stability test (120° C., 75 hours) described in JIS C2101.
as §1

[5] = Kinetic viscosity (Canon Fenske viscometer, JIS K2283); type: physicochemical
Source text: as §1

human being = conditions: in vivo; cited from earlier work
rabbit = conditions: in vivo; cited from earlier work

SMILES | Di-electric breakdown voltage [1] | Specific permittivity (80° C.) [2] | Flash point [3] | Oxidation stability test, 120° C. after 75 hours [4] | Oxidation stability test, Initial value [4] | Kinetic viscosity (40° C.) [5] | Dermal irritation average point (human being) | Eye irritation (rabbit)
CCCCCCCCCCCC(=O)OCC(CC)CCCC (centres unmarked) [2-ethyl hexyl laurate, 2-ethylhexyl laurate, reference compound] | 78 KV/2.5 mm | 2.7 | 175 °C | 0.3 mgKOH/g | 0.002 mgKOH/g | 5 mm^2/s | – | –
CCCCCCCC(=O)OCC(COC(=O)CCCCCCC)OC(=O)CCCCCCC [base agent B, caprylic acid triglyceride] | 71 KV/2.5 mm | 3.8 | 235 °C | 0.4 mgKOH/g | 0.002 mgKOH/g | 12.5 mm^2/s | – | –
CC(CC(=O)OCC(COC(=O)CC(C)CC(C)(C)C)(COC(=O)CC(C)CC(C)(C)C)COC(=O)CC(C)CC(C)(C)C)CC(C)(C)C (centres unmarked) [pentaerythritol ester of 3,5,5-trimethylhexanoic acid, reference compound] | 55 KV/2.5 mm | >3.0 | >250 °C | 0.8 mgKOH/g | 0.02 mgKOH/g | 110 mm^2/s | – | –
CCCCC(CC)C(=O)OCC(COC(=O)C(CC)CCCC)OC(=O)C(CC)CCCC (centres unmarked) [2-ethylhexanoic acid triglyceride] | – | – | – | – | – | – | test: average point = 0.05 | rabbit, 100%, OECD 405 method: no
CCCCC(CC)C(=O)OCC(COC(=O)C(CC)CCCC)OC(=O)C(CC)CCCC (centres unmarked) [base agent E, 2-ethylhexanoic acid triglyceride] | 73 KV/2.5 mm | 3.5 | 220 °C | 0.2 mgKOH/g | 0.008 mgKOH/g | 16 mm^2/s | – | –
